Measured values published in ChEMBL document CHEMBL1152301, “Substitution of aminomethyl at the meta-position enhances the inactivation of O6-alkylguanine-DNA alkyltransferase by O6-benzylguanine” (J Med Chem, 2008).
Residue numbers refer to the chain shown, from its start. Calls of active or inactive are those of the source. No cut-off for these calls is given here.

Columns and labels:
[1] = molecular target: T1, Methylated-DNA--protein-cysteine methyltransferase (Homo sapiens) (UniProt P16455)
T1 sequence (whole entry): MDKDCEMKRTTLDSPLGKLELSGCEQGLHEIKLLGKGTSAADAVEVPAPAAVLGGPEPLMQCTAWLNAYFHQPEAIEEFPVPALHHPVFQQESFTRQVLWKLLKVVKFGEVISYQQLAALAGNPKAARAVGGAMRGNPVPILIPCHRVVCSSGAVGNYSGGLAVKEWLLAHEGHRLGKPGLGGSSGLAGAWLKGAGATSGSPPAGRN
Description: Inactivation of histidine6-tagged wild type human recombinant O-6-alkylguanine-DNA-alkyltransferase expressed in Escherichia coli assessed as [3H]methylated protein formation in absence of [3H]methylated calf thymus DNA

[2] = molecular target: T1, Methylated-DNA--protein-cysteine methyltransferase (Homo sapiens); remark: listed apart in the source
Description: Inactivation of histidine6-tagged wild type human recombinant O-6-alkylguanine-DNA-alkyltransferase expressed in Escherichia coli assessed as [3H]methylated protein formation in presence of [3H]methylated calf thymus DNA

[3] = Stability assessed as N6-[2-(hydroxymethyl)-benzyl]-2-aminoadenine formation in aqueous solution; assay type: physicochemical; settings: buffer
[4] = molecular target: T1, Methylated-DNA--protein-cysteine methyltransferase (Homo sapiens); assay: Inactivation of histidine6-tagged human recombinant O-6-alkylguanine-DNA-alkyltransferase expressed in Escherichia coli assessed as [3H]methylated protein formation at 1 mM
[5] = molecular target: T1, Methylated-DNA--protein-cysteine methyltransferase (Homo sapiens); assay: Inactivation of human O-6-alkylguanine-DNA-alkyltransferase in human HT-29 cells at 1 uM after 30 mins by reverse-phase HPLC in presence of [3H]methylated calf thymus DNA
[6] = test system: T2, Methylated-DNA--protein-cysteine methyltransferase (Homo sapiens), P16455 [S159A]
T2 sequence (whole entry): T1 sequence (whole entry) with S159A
Description: Inactivation of histidine6-tagged human recombinant O-6-alkylguanine-DNA-alkyltransferase S159A mutant expressed in Escherichia coli assessed as [3H]methylated protein formation in absence of [3H]methylated calf thymus DNA

HT-29 = assay: Sensitization of human HT-29 cells to BCNU-induced cytotoxicity assessed as survival treated for 2 hrs before BCNU challenge measured after 16 to 18 hrs by colony forming assay; assay type: functional, cell-based
[7] = test system: T2, Methylated-DNA--protein-cysteine methyltransferase (Homo sapiens), P16455 [S159A]; remark: listed apart in the source
Description: Inactivation of histidine6-tagged human recombinant O-6-alkylguanine-DNA-alkyltransferase S159A mutant expressed in Escherichia coli assessed as [3H]methylated protein formation in presence of [3H]methylated calf thymus DNA

Compound | ED50 [1] [µM] | ED50 [2] [µM] | t1/2 [3] [h] | inhibition [4] [%] | inhibition [5] [%] | ED50 [6] [µM] | Activity (HT-29) | ED50 [7] [µM]
Cc1ccc(COc2nc(N)nc3nc[nH]c23)cc1 | 0.32 | – | – | – | – | – | – | –
NCc1ccccc1COc1nc(N)nc2nc[nH]c12 | 80 | 45 | – | – | – | – | – | –
Nc1nc(NCc2ccccc2CO)c2[nH]cnc2n1 | > 1000 | > 1000 | 50 | < 10 | – | – | – | –
NCc1ccc(COc2nc(N)nc3nc[nH]c23)cc1 | 0.23 | 0.053 | – | – | 20 | 0.16 | Active | 0.028
Cc1ccccc1COc1nc(N)nc2nc[nH]c12 | 185 | 90 | – | – | – | – | – | –
Cc1cccc(COc2nc(N)nc3nc[nH]c23)c1 | 0.25 | 0.16 | – | – | – | – | – | –
